Source: PubChem BioAssay AID1918958 (Molecular Pharmacology Branch, DTP, NCI, 2023)
Several values for one entry are separate records, joined by “and”; a condition that tells them apart may be missing. Identical values can stand only once.

Tested on: NCI-H196 complex spheroid viability
Experiment: Anticancer human tumor NCI-H196 cell line growth inhibition [LSD1];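 further: spheroids exposed to agents for 7 days before readout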;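 on viability, T/C: 100% = DMSO vehicle control viability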
Conditions: for viability, T/C: stronger effect = lower value
Procedure, shortened: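 Complex spheroids of tumor cells with HUVEC and human MSCs, exposed to iadademstat combined with other agents. Each agent tested in half-log steps from near clinical Cmax (else 10 microM top), DMSO ≤0.25%.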

[1] = curve of first compound, second compound 0.1 µM
[2] = curve of first compound, second compound 0.316 µM
[3] = curve of first compound, second compound 1 µM
[4] = curve of first compound, second compound 3.16 µM
[5] = curve of first compound, second compound 10 µM
[6] = second compound 0.1 µM, first compound 0.0316 µM
[7] = second compound 0.1 µM, first compound 0.1 µM
[8] = second compound 0.1 µM, first compound 0.316 µM
[9] = second compound 0.1 µM, first compound 1 µM
[10] = second compound 0.1 µM, first compound 3.16 µM
[11] = second compound 0.1 µM, first compound 10 µM
[12] = second compound 0.316 µM, first compound 0.0316 µM
[13] = second compound 0.316 µM, first compound 0.1 µM
[14] = second compound 0.316 µM, first compound 0.316 µM
[15] = second compound 0.316 µM, first compound 1 µM
[16] = second compound 0.316 µM, first compound 3.16 µM
[17] = second compound 0.316 µM, first compound 10 µM
[18] = second compound 1 µM, first compound 0.0316 µM
[19] = second compound 1 µM, first compound 0.1 µM
[20] = second compound 1 µM, first compound 0.316 µM
[21] = second compound 1 µM, first compound 1 µM
[22] = second compound 1 µM, first compound 3.16 µM
[23] = second compound 1 µM, first compound 10 µM
[24] = second compound 3.16 µM, first compound 0.0316 µM
[25] = second compound 3.16 µM, first compound 0.1 µM
[26] = second compound 3.16 µM, first compound 0.316 µM
[27] = second compound 3.16 µM, first compound 1 µM
[28] = second compound 3.16 µM, first compound 3.16 µM
[29] = second compound 3.16 µM, first compound 10 µM
[30] = second compound 10 µM, first compound 0.0316 µM
[31] = second compound 10 µM, first compound 0.1 µM
[32] = second compound 10 µM, first compound 0.316 µM
[33] = second compound 10 µM, first compound 1 µM
[34] = second compound 10 µM, first compound 3.16 µM
[35] = second compound 10 µM, first compound 10 µM

Nc1ncn(C2CC(O)C(CO)S2)c(=O)n1 (stereo unspecified) + NC1CC1c1ccc(-c2cccc(O)c2)cc1
IC50 [1]: > 0.3 µM
IC50 [2]: > 0.3 µM
IC50 [3]: > 0.3 µM
IC50 [4]: > 0.3 µM
IC50 [5]: > 0.3 µM
viability, T/C (second compound 0.1 µM, first compound 0.000949 µM): 98.2%
viability, T/C (second compound 0.1 µM, first compound 0.003 µM): 105%
viability, T/C (second compound 0.1 µM, first compound 0.00949 µM): 108%
viability, T/C (second compound 0.1 µM, first compound 0.03 µM): 101%
viability, T/C (second compound 0.1 µM, first compound 0.0949 µM): 108%
viability, T/C (second compound 0.1 µM, first compound 0.3 µM): 102%
viability, T/C (second compound 0.316 µM, first compound 0.000949 µM): 107%
viability, T/C (second compound 0.316 µM, first compound 0.003 µM): 111%
viability, T/C (second compound 0.316 µM, first compound 0.00949 µM): 112%
viability, T/C (second compound 0.316 µM, first compound 0.03 µM): 113%
viability, T/C (second compound 0.316 µM, first compound 0.0949 µM): 112%
viability, T/C (second compound 0.316 µM, first compound 0.3 µM): 113%
viability, T/C (second compound 1 µM, first compound 0.000949 µM): 103%
viability, T/C (second compound 1 µM, first compound 0.003 µM): 110%
viability, T/C (second compound 1 µM, first compound 0.00949 µM): 113%
viability, T/C (second compound 1 µM, first compound 0.03 µM): 109%
viability, T/C (second compound 1 µM, first compound 0.0949 µM): 134%
viability, T/C (second compound 1 µM, first compound 0.3 µM): 116%
viability, T/C (second compound 3.16 µM, first compound 0.000949 µM): 101%
viability, T/C (second compound 3.16 µM, first compound 0.003 µM): 102%
viability, T/C (second compound 3.16 µM, first compound 0.00949 µM): 106%
viability, T/C (second compound 3.16 µM, first compound 0.03 µM): 99.3%
viability, T/C (second compound 3.16 µM, first compound 0.0949 µM): 117%
viability, T/C (second compound 3.16 µM, first compound 0.3 µM): 119%
viability, T/C (second compound 10 µM, first compound 0.000949 µM): 101%
viability, T/C (second compound 10 µM, first compound 0.003 µM): 109%
viability, T/C (second compound 10 µM, first compound 0.00949 µM): 103%
viability, T/C (second compound 10 µM, first compound 0.03 µM): 102%
viability, T/C (second compound 10 µM, first compound 0.0949 µM): 103%
viability, T/C (second compound 10 µM, first compound 0.3 µM): 99.5%

O=C(c1cc(Cc2n[nH]c(=O)c3ccccc23)ccc1F)N1CCN(C(=O)C2CC2)CC1 + NC1CC1c1ccc(-c2cccc(O)c2)cc1
IC50 [1]: > 10 µM
IC50 [2]: > 10 µM
IC50 [3]: > 10 µM
IC50 [4]: > 10 µM
IC50 [5]: > 10 µM
viability, T/C [6]: 85.5%
viability, T/C [7]: 85.3%
viability, T/C [8]: 89.4%
viability, T/C [9]: 90.4%
viability, T/C [10]: 87.2%
viability, T/C [11]: 92.3%
viability, T/C [12]: 98%
viability, T/C [13]: 90.3%
viability, T/C [14]: 86.5%
viability, T/C [15]: 86.2%
viability, T/C [16]: 91.7%
viability, T/C [17]: 83%
viability, T/C [18]: 90.8%
viability, T/C [19]: 88.1%
viability, T/C [20]: 95.8%
viability, T/C [21]: 92.1%
viability, T/C [22]: 87.2%
viability, T/C [23]: 78%
viability, T/C [24]: 90.4%
viability, T/C [25]: 99.3%
viability, T/C [26]: 99.3%
viability, T/C [27]: 92.3%
viability, T/C [28]: 88.9%
viability, T/C [29]: 76.7%
viability, T/C [30]: 84.9%
viability, T/C [31]: 93.9%
viability, T/C [32]: 88.9%
viability, T/C [33]: 83%
viability, T/C [34]: 83%
viability, T/C [35]: 80.9%

CC1(C)CCC(CN2CCN(c3ccc(C(=O)NS(=O)(=O)c4ccc(NCC5CCOCC5)c([N+](=O)[O-])c4)c(Oc4cnc5[nH]ccc5c4)c3)CC2)=C(c2ccc(Cl)cc2)C1 + NC1CCC(NC2CC2c2ccccc2)CC1
IC50 [1]: 5.15 µM
IC50 [2]: 5.19 µM
IC50 [3]: 5.88 µM
IC50 [4]: 5.6 µM
IC50 [5]: 6.02 µM
viability, T/C [6]: 98.8%
viability, T/C [7]: 104%
viability, T/C [8]: 96.8%
viability, T/C [9]: 97.8%
viability, T/C [10]: 76%
viability, T/C [11]: 14.6%
viability, T/C [12]: 107%
viability, T/C [13]: 106%
viability, T/C [14]: 98%
viability, T/C [15]: 98%
viability, T/C [16]: 78.3%
viability, T/C [17]: 13.2%
viability, T/C [18]: 101%
viability, T/C [19]: 103%
viability, T/C [20]: 101%
viability, T/C [21]: 106%
viability, T/C [22]: 89.1%
viability, T/C [23]: 16.5%
viability, T/C [24]: 109%
viability, T/C [25]: 104%
viability, T/C [26]: 95.4%
viability, T/C [27]: 102%
viability, T/C [28]: 82.8%
viability, T/C [29]: 16.6%
viability, T/C [30]: 104%
viability, T/C [31]: 101%
viability, T/C [32]: 99.2%
viability, T/C [33]: 103%
viability, T/C [34]: 86.4%
viability, T/C [35]: 21%

Nc1ccccc1NC(=O)c1ccc(CNC(=O)OCc2cccnc2)cc1
viability, T/C (compound 0.00949 µM): 81.1% and 83.5%
viability, T/C (compound 0.03 µM): 65.5% and 73%
viability, T/C (compound 0.0949 µM): 42.2% and 39%
viability, T/C (compound 0.3 µM): 13.3% and 8.4%
viability, T/C (compound 0.949 µM): 0.4% and 0.47%
viability, T/C (compound 3 µM): 1.02% and 0.51%
IC50 (curve of compound): 0.0632 µM and 0.0654 µM

CC[C@@]1(O)C(=O)OCc2c1cc1n(c2=O)Cc2cc3c(CN(C)C)c(O)ccc3nc2-1
viability, T/C (compound 0.000316 µM): 98.3% and 97.6%
viability, T/C (compound 0.001 µM): 99% and 93.1%
viability, T/C (compound 0.00316 µM): 95.1% and 99.2%
viability, T/C (compound 0.01 µM): 109% and 97.3%
viability, T/C (compound 0.0316 µM): 110% and 115%
viability, T/C (compound 0.1 µM): 106% and 102%
IC50 (curve of compound): > 0.1 µM

CC(C)c1c(-c2ccccc2)nc2c(C#N)c[nH]n2c1=O + NC1CC1c1ccc(-c2cccc(O)c2)cc1
IC50 [1]: > 10 µM
IC50 [2]: > 10 µM
IC50 [3]: > 10 µM
IC50 [4]: > 10 µM
IC50 [5]: > 10 µM
viability, T/C [6]: 87.2%
viability, T/C [7]: 96.8%
viability, T/C [8]: 88.4%
viability, T/C [9]: 83.5%
viability, T/C [10]: 93.1%
viability, T/C [11]: 90.1%
viability, T/C [12]: 92.7%
viability, T/C [13]: 102%
viability, T/C [14]: 98%
viability, T/C [15]: 89.4%
viability, T/C [16]: 94.6%
viability, T/C [17]: 88.2%
viability, T/C [18]: 96.7%
viability, T/C [19]: 95%
viability, T/C [20]: 91.1%
viability, T/C [21]: 96.7%
viability, T/C [22]: 104%
viability, T/C [23]: 79.8%
viability, T/C [24]: 101%
viability, T/C [25]: 88.5%
viability, T/C [26]: 95.3%
viability, T/C [27]: 96.2%
viability, T/C [28]: 91.6%
viability, T/C [29]: 94.1%
viability, T/C [30]: 103%
viability, T/C [31]: 92.6%
viability, T/C [32]: 93.1%
viability, T/C [33]: 88.4%
viability, T/C [34]: 86.3%
viability, T/C [35]: 88%

NS(=O)(=O)OCC1CC(n2ccc3c(NC4CCc5ccccc54)ncnc32)CC1O (stereo unspecified)
viability, T/C (compound 0.00949 µM): 109% and 80.7%
viability, T/C (compound 0.03 µM): 94.8% and 79.4%
viability, T/C (compound 0.0949 µM): 75.2% and 67.4%
viability, T/C (compound 0.3 µM): 83.8% and 77.4%
viability, T/C (compound 0.949 µM): 79.3% and 74.5%
viability, T/C (compound 3 µM): 67.7% and 66.8%
IC50 (curve of compound): > 3 µM
